“Also recorded” adds a separate entry of the source.
What was measured:
[1] = test system: Mouse (B16) and human (WM46) melanoma cell lines; assay: tumor formation in mice from melanoma cells pretreated in vitro; format: in vivo
Description: (§1) FIG. 11A: Long-term melanin assay in which normal human melanocytes were transiently treated with progesterone (P4), or estrogen (E2). Subsets of these groups (Red) were treated with an additional transient pulse of P4 at Day 27. Error bars equal the standard deviation of the samples. FIG. 11B: Western blot of melanocyte differentiation markers after a transient, 4-day treatment with either vehicle or estrogen, followed by an 8 day withdraw period. FIG. 11C: Experimental timeline of estrogen or GPER agonist (G-1) pre-treatment of mouse and human melanoma cells, n=5 per group. FIG. 11D: Relative tumor weights of mouse and human melanomas pre-treated with estrogen, * denotes significance by the Mann-Whitney test. FIG. 11E: Relative tumor weights of mouse and human melanomas pre-treated with G-1, * denotes significance by the Mann-Whitney test.
Mouse (B16) and human (WM46) cell lines were pretreated with estrogen, G-1, or vehicle in vitro for one week then injected in equal numbers in to the left (vehicle-treated) or right (E2-treated) flank of mice, inducing tumor formation (N=5 mice per group) (FIG. 5). 14-16 days later, mice were imaged and tumors were harvested and weighed.
To test whether transient GPER signaling induces a persistent differentiation state in melanoma cells that affects subsequent tumor growth in vivo, melanoma cells were treated with estrogen, G-1, or vehicle in vitro, and subsequently injected equal numbers of treated cells into host mice (FIG. 11C).

normal human melanocytes = assay: differentiation of normal human melanocytes after continuous or transient hormone exposure (melanin, RNAseq, Western blot); format: cell-based; settings: for melanocyte differentiation state (melanin pigment production) / melanin production after hormone withdrawal: normal human melanocytes; for melanocyte differentiation state (melanin pigment production): hormone or agonist exposure; for melanin production after hormone withdrawal: transient exposure then withdrawal
Description: as §1
Normal human melanocytes received a pulse-treatment of estrogen—this consisted of 4 days of estrogen treatment followed by an 8 day withdraw.
To test whether pregnancy-associated hormones induce long-lasting changes in melanocyte differentiation that may affect their future susceptibility to transformation, primary human melanocytes were transiently exposed to estrogen or progesterone (FIGS. 11A-11E).
A subset of cells differentiated by transient exposure to estrogen was subsequently treated with progesterone.

[2] = test system: mouse and human melanoma cell lines (B16F10, WM46, WM51, WM3702); assay: proliferation assay of mouse and human melanoma cell lines in vitro; format: cell-based; settings: estrogen 25 nM E2, G-1 100 nM, vs delivery vehicle
Excerpt: (§2) FIGS. 4A-4F illustrate the finding that GPER signaling slows proliferation and drives differentiation in mouse and human melanoma. FIG. 4A: 5 day proliferation assay of B16F10, WM46 (BRAF^V600E), WM51 (BRAF^V600E), and WM3702 (NRAS^Q61L) cells treated with estrogen (E2), * denotes significance by a two-tailed T-test, n=3 per group. FIG. 4B: 5 day melanin assay of B16F10, WM46 (BRAF^V600E), WM51 (BRAF^V600E), and WM3702 (NRAS^Q61L) cells treated with E2, * denotes significance by a two-tailed T-test, n=3 per group. FIG. 4C: 5 day proliferation assay of B16F10, WM46 (BRAF^V600E), WM51 (BRAF^V600E) and WM3702 (NRAS^Q61L) cells treated with GPER agonist (G-1), * denotes significance by a two-tailed T-test, n=3 per group. FIG. 4D: 5 day melanin assay of B16F10, WM46 (BRAF^V600E), WM51 (BRAF^V600E), and WM3702 (NRAS^Q61L) cells treated with G-1, * denotes significance by a two-tailed T-test, n=3 per group. FIG. 4E: 3 day proliferation assay of B16F10 cells treated with a dose response of G-1, * denotes significance One-way ANOVA with Tukey's multiple comparison test, n=5 per group. FIG. 4F: Western blot of B16F10 cells treated for 16 hours with a saturating dose response of G-1. […]
(§3) Tumor cell proliferation slowed in both mouse and human melanoma cells following treatment with estrogen or G-1, a specific GPER agonist. […] Cell proliferation and differentiation (melanin production) were measured.

[3] = test system: histone posttranslational modifications; assay: mass spectrometry of histone posttranslational modifications in estrogen-treated melanocytes; format: cell-based, human
Excerpt: FIG. 16B: Western blot of p-RB, c-Myc, and H3K56ac in melanoma cells after treatment with G-1, HDACi, or in combination. FIG. 16C: Proliferation assay of B16F10 melanoma cells after treatment with G-1, HDACi, or in combination.
To begin to identify the epigenetic changes likely underlying stable melanocyte differentiation after GPER activation, mass spectrometry was used to obtain a global analysis of histone posttranslational modifications in estrogen-treated MC.

[4] = test system: mouse and human melanoma cell lines (B16F10, WM46, WM51, WM3702); assay: melanin assay (differentiation) of mouse and human melanoma cell lines in vitro; format: cell-based; settings: estrogen 25 nM E2, G-1 100 nM, vs delivery vehicle
Excerpt: as §2, §3

human melanocytes = assay: pigment production and differentiation in human melanocytes treated with MSH or afamelanotide (FIG. 9); format: cell-based
Excerpt: FIG. 9 is a set of bar graphs illustrating the finding that MSH (the endogenous equivalent of afamelanotide) and afamelanotide (also known as […] or NDP-α-MSH) increase pigment production (top) and differentiation (bottom) in human melanocytes.

For `C[C@]12CC[C@@H]3c4ccc(O)cc4CC[C@H]3[C@@H]1CC[C@@H]2O` [estrogen, estradiol], the “inhibition of tumor growth in vivo” value ([1]; cells pretreated in vitro for one week, injected into flank of mice, tumors weighed 14-16 days later) was “approximately 3 fold”, the “tumor growth / tumor size from pretreated cells” value ([1]; melanoma cells pretreated in vitro, equal numbers injected into mice) was “formed significantly smaller tumors; also recorded: markedly reduced subsequent tumor size; also recorded: inhibits melanoma cell line growth in vivo” and the “expression of aggressive melanoma markers such as premelanosome protein (PMEL)” value (normal human melanocytes; 4 days of treatment followed by an 8 day withdraw, RNAseq) was “decreased expression”. For the same compound, the “expression of melanocyte differentiation markers (TYR, TRP1, MC1R, MLANA, DCT)” value (normal human melanocytes; 4 days of treatment followed by an 8 day withdraw, RNAseq, Western blot) was “maintained upregulated expression of all the major melanocyte differentiation markers; also recorded: stable increases in classic melanocyte differentiation antigens”, the “melanocyte differentiation state (melanin pigment production)” value (from here on “melanocyte differentiation state”) (normal human melanocytes) was “increases melanocyte differentiation state; also recorded: increase the differentiation state of human melanocytes” and the “melanocyte differentiation state” value (normal human melanocytes; listed as Estrogen) was “make more pigment; also recorded: increased melanin production”. For the same compound, the “melanin production after hormone withdrawal” value (normal human melanocytes) was “stably produced more melanin”, the melanoma cell proliferation [2] was “slowed melanoma cell proliferation” and the H3K9ac mark [3] was “decreased”. For the same compound, the “histone acetylation marks regulated by CBP/P300, including H3K122, H3K23, and H3K18” value ([3]; 3 independent biologic replicates) was “significant increases” and the “differentiation (melanin production)” value [4] was “drove differentiation”.
`CC(=O)[C@H]1CC[C@H]2[C@@H]3CCC4=CC(=O)CC[C@]4(C)[C@H]3CC[C@]12C` [progesterone] was tested, and the “melanocyte differentiation state” value (normal human melanocytes) was “had opposite effects” and the “melanin production after hormone withdrawal” value (normal human melanocytes) was “quickly returned to their baseline level of melanin production”.
“MSH: the endogenous equivalent of afamelanotide (Ac-SYSMEHFRWGKPV-NH2; ends and bridges not checked; UniProt P01189 138-150, looked up)” was tested, and the differentiation (human melanocytes) was “increase” and the pigment production (human melanocytes) was “increase”.

— US11369618B2, “Compounds, compositions and methods for prevention and/or treatment of cancer” (THE TRUSTEES OF THE UNIVERSITY OF PENNSYLVANIA, priority 2016, dated 2022)
